# Measured values: PubChem BioAssay (NCI)
#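 Exposure lasted 48 hours, with cells grown in 96-well plates and compounds tested at five concentrations. The concentration for full growth arrest is given as TGI.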
# System: HCT-15 colon
# Assay: NCI tumour cell line growth inhibition, 48 h
row,SMILES,TGI
1,CC12Nc3c(Cl)cc(Cl)cc3N1C(=O)c1ccccc12 (stereo unspecified),> 100 µM
2,Nc1cc(Cl)cc2cc(Cl)cnc12,> 100 µM
3,COC(=O)/C(C)=N/NC(=S)SC,> 100 µM
4,O=C(/C=C/c1cccc([N+](=O)[O-])c1)N1CCN(CCOC(c2ccccc2)c2ccccc2)CC1,> 100 µM
5,CC(=O)OCC1OC(NC(=S)Nn2c(=O)[nH]c3ccccc3c2=O)C(OC(C)=O)C(OC(C)=O)C1OC(C)=O (stereo unspecified),> 100 µM
6,Cc1ccc2c(c1)C(=O)C1(C2)Cc2c(C)cccc2C1=O (stereo unspecified),> 100 µM
7,CC1=NN(c2cccc(S(=O)(=O)O)c2)C2(C1)C(Cl)C(=O)N2c1nc2ccccc2s1 (stereo unspecified),17.8 µM
8,C/C(Cl)=N/OC(=O)Nc1ccc(F)c([N+](=O)[O-])c1,12.6 µM
9,COC(=O)C1C2OC(C)(C)OC2CN1S(=O)(=O)c1ccc(C)cc1 (stereo unspecified),> 100 µM
10,COc1ccc(CNc2ccn(C3OC(CO)C(O)C3O)c(=O)n2)cc1 (stereo unspecified),> 100 µM
11,O=C1CSC(c2ccccc2)N1c1nc2cc3sc(N4C(=O)CSC4c4ccccc4)nc3cc2s1 (stereo unspecified),> 100 µM
12,C[C@]12CCC(O)CC1=CC[C@@H]1[C@@H]2CC[C@]2(C)C(O)[C@H](n3ccnc3)C[C@@H]12 (stereo partly specified),> 100 µM
13,O=C(CC(O)(C(F)(F)F)C(F)(F)F)C(c1ccccc1)C(O)(C(F)(F)F)C(F)(F)F (stereo unspecified),> 100 µM
14,CCOC(=O)/C(C#N)=C/Nc1c(C)n(C)n(-c2ccccc2)c1=O,> 100 µM

# System: IGROV1 ovarian
# Assay: NCI tumour cell line growth inhibition, 48 h
row,SMILES,TGI
1,COc1cc(C(=O)NNC(=O)c2cc(Br)ccc2NC(=O)c2cccs2)cc(OC)c1OC,> 100 µM
2,C[N+]12CCCCC1C(COc1cccc3cccnc13)CCC2 (stereo unspecified),> 100 µM
3,Cc1ccc(S(=O)(=O)NC(=O)NCc2ccc(S(N)(=O)=O)cc2)cc1,> 100 µM
4,NC(=O)NC1NC(=O)NC1=O (stereo unspecified),> 100 µM
5,CCN(CCCl)c1cc(CN(C)C)cc(NC(=O)c2ccc(C(=O)Nc3cc(CN(C)C)cc(N(CC)CCCl)c3)cc2)c1,0.732 µM
6,C=CCN1C(=O)/C(=C/c2ccc(Cl)cc2)N=C1SC/C=C/C,> 100 µM
7,CC12Nc3c(Cl)cc(Cl)cc3N1C(=O)c1ccccc12 (stereo unspecified),> 100 µM
8,Nc1cc(Cl)cc2cc(Cl)cnc12,> 100 µM
9,COC(=O)/C(C)=N/NC(=S)SC,> 100 µM
10,O=C(/C=C/c1cccc([N+](=O)[O-])c1)N1CCN(CCOC(c2ccccc2)c2ccccc2)CC1,> 100 µM
11,CC(=O)OCC1OC(NC(=S)Nn2c(=O)[nH]c3ccccc3c2=O)C(OC(C)=O)C(OC(C)=O)C1OC(C)=O (stereo unspecified),> 100 µM
12,Cc1ccc2c(c1)C(=O)C1(C2)Cc2c(C)cccc2C1=O (stereo unspecified),> 100 µM
13,CC1=NN(c2cccc(S(=O)(=O)O)c2)C2(C1)C(Cl)C(=O)N2c1nc2ccccc2s1 (stereo unspecified),3.5 µM
14,C/C(Cl)=N/OC(=O)Nc1ccc(F)c([N+](=O)[O-])c1,17.9 µM
15,COC(=O)C1C2OC(C)(C)OC2CN1S(=O)(=O)c1ccc(C)cc1 (stereo unspecified),> 100 µM
16,COc1ccc(CNc2ccn(C3OC(CO)C(O)C3O)c(=O)n2)cc1 (stereo unspecified),> 100 µM
17,O=C1CSC(c2ccccc2)N1c1nc2cc3sc(N4C(=O)CSC4c4ccccc4)nc3cc2s1 (stereo unspecified),> 100 µM
18,C[C@]12CCC(O)CC1=CC[C@@H]1[C@@H]2CC[C@]2(C)C(O)[C@H](n3ccnc3)C[C@@H]12 (stereo partly specified),> 100 µM
19,O=C(CC(O)(C(F)(F)F)C(F)(F)F)C(c1ccccc1)C(O)(C(F)(F)F)C(F)(F)F (stereo unspecified),> 100 µM
20,CCOC(=O)/C(C#N)=C/Nc1c(C)n(C)n(-c2ccccc2)c1=O,> 100 µM

# System: MCF7 breast
# Assay: NCI tumour cell line growth inhibition, 48 h
row,SMILES,TGI
1,COc1cc(C(=O)NNC(=O)c2cc(Br)ccc2NC(=O)c2cccs2)cc(OC)c1OC,52.1 µM
2,C[N+]12CCCCC1C(COc1cccc3cccnc13)CCC2 (stereo unspecified),> 100 µM
3,Cc1ccc(S(=O)(=O)NC(=O)NCc2ccc(S(N)(=O)=O)cc2)cc1,> 100 µM
4,NC(=O)NC1NC(=O)NC1=O (stereo unspecified),> 100 µM
5,CCN(CCCl)c1cc(CN(C)C)cc(NC(=O)c2ccc(C(=O)Nc3cc(CN(C)C)cc(N(CC)CCCl)c3)cc2)c1,0.241 µM
6,C=CCN1C(=O)/C(=C/c2ccc(Cl)cc2)N=C1SC/C=C/C,84.3 µM
7,CC12Nc3c(Cl)cc(Cl)cc3N1C(=O)c1ccccc12 (stereo unspecified),> 100 µM
8,Nc1cc(Cl)cc2cc(Cl)cnc12,> 100 µM
9,COC(=O)/C(C)=N/NC(=S)SC,> 100 µM
10,O=C(/C=C/c1cccc([N+](=O)[O-])c1)N1CCN(CCOC(c2ccccc2)c2ccccc2)CC1,> 100 µM
11,CC(=O)OCC1OC(NC(=S)Nn2c(=O)[nH]c3ccccc3c2=O)C(OC(C)=O)C(OC(C)=O)C1OC(C)=O (stereo unspecified),> 100 µM
12,Cc1ccc2c(c1)C(=O)C1(C2)Cc2c(C)cccc2C1=O (stereo unspecified),> 100 µM
